Holding throughout (experiment): NCI tumour cell line growth inhibition, 48 h
Test [1] has as its system BT-549 breast.
In test [2] the test system is HS 578T breast.
Test [3] deals with PC-3 prostate.
Test [4] has as its system MDA-N.

Each structure is given as a SMILES string.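 Method: 48-hour compound exposure of cells in 96-well plates, five concentrations, linear interpolation of endpoints. At the GI50, growth is halved. Definition used: TGI = concentration required for complete inhibition of growth.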

With `CC(=O)OC1C2(CC3N4C(=O)C5(CO)SSC4(CC31O)C(=O)N5C)OC(C)C(C)(C)C2=O` (centres undefined), the GI50 in test [1] is 0.146 µM; in test [2], 0.0449 µM; in test [3], 0.148 µM. The figures for the TGI in test [1], in test [2] and in test [3] were 0.728 µM, 0.213 µM and 0.588 µM, respectively.
As to `Nc1nc(OCc2ccccc2)nc2[nH]ncc12`, the GI50 in test [1] is 23.2 µM; in test [2], 17.5 µM; in test [3] it was 16.8 µM. For the same molecule, the TGI was 54.8 µM in test [1], 38.5 µM in test [2] and 39.9 µM in test [3].
For the molecule `C=C(C)CCC(C)N1CCC(N2CCC(C(=O)NCCc3ccccc3)CC2)CC1` (centres undefined), the values for the GI50 in test [1], in test [2] and in test [3] were 12.1 µM, 20.4 µM and 79.2 µM, respectively. Moreover, the TGI in test [1] is over 100 µM; in test [2], 61.8 µM; in test [3], over 100 µM.
As to `CCCCC[C@H]1C/C=C2/C(=O)C(Cl)=C[C@@H]2C/C=C\CCCC(=O)O[C@@H](CCCCC)C/C=C2/C(=O)C(Cl)=C[C@@H]2C/C=C\CCCC(=O)O1`, the GI50 in test [1] is 0.33 µM; in test [2], 0.709 µM; in test [3], 0.368 µM. Besides, the results for the TGI in test [1], in test [2] and in test [3] were 0.836 µM, 16.7 µM and 1.08 µM, respectively.
Regarding `Fc1ccc(Nc2nccc(-c3c(-c4ccc(C(F)(F)F)cc4)nn4ncccc34)n2)cc1F`, the GI50 in test [1], in test [2] and in test [3] was over 25 µM throughout. Besides, the TGI in test [1], in test [2] and in test [3] was over 25 µM each time.
`COc1ccc2c(c1)nc(N)c1c3cccnc3cn21`: the GI50 in test [1] was 0.447 µM; in test [2], 0.0951 µM; in test [3], 0.0412 µM. Besides, the TGI in test [1] is 28.9 µM; in test [2] it was over 49.6 µM; in test [3], 27.7 µM.
Turning to `Fc1ccc(Nc2nc(NCCNc3ccnc4cc(Cl)ccc34)nc(N3CCOCC3)n2)cc1`, the GI50 is 8.67 µM in test [1], 7.32 µM in test [2] and 4.87 µM in test [3]. For the same molecule, the TGI stood at 22 µM in test [1], 28.9 µM in test [2] and 18.5 µM in test [3].
In the case of `Oc1cc(Cl)ccc1Oc1ccc(Cl)cc1Cl`, the GI50 in test [1] was 2.62 µM; in test [2], 4.54 µM; in test [3] it was 2.78 µM. The results for the TGI in test [1], in test [2] and in test [3] were 5.95 µM, 42.6 µM and 8.43 µM, respectively.
Take `CCOC(=O)c1c(C)n(Cc2ccc(Cl)cc2Cl)c2c1cc1oc(=O)c(=O)n3c(Cc4ccccc4)nc2c13`: the figures for the GI50 in test [1], in test [2] and in test [3] were 2.55 µM, 1.21 µM and 2.06 µM, respectively. The TGI in test [1] was 6.4 µM; in test [2] it was 3.12 µM; in test [3], 5.01 µM.
For the molecule `O=c1oc2ccc(Cl)cc2c(=O)n1-c1ccc(I)cc1F`, the GI50 in test [1] was 0.168 µM; in test [2] it was 0.161 µM; in test [3] it was 0.924 µM. The TGI in test [1] was 1 µM; in test [2] it was 1.11 µM; in test [3], 6.92 µM.
For `O=C(NN1C(=O)CSC1c1ccc(Cl)cc1)c1[nH]c2ccc(F)cc2c1-c1ccccc1` (centres undefined), the GI50 in test [1] is 2.09 µM; in test [2] it was 2.84 µM; in test [3], 2.72 µM. Moreover, the TGI in test [1] worked out at 5.37 µM; in test [2] it was 9.37 µM; in test [3], 8.89 µM.
Turning to `COc1cc(/C=C(/c2ccccc2)[N+](=O)[O-])c(OC)c2c1OCO2`, the GI50 in test [1] was 1.66 µM; in test [2], 2.99 µM; in test [3], 1.71 µM. The TGI in test [1] came out at 3.23 µM; in test [2], 14.9 µM; in test [3], 3.59 µM.
Regarding `Cc1cc(N2CCCC2)nc(N(CCCNc2ccnc3cc(Cl)ccc23)Cc2ccc3c(c2)OCO3)n1`, the GI50 was 1.74 µM in test [2] and 1.47 µM in test [3]. Also, the TGI in test [2] was found to be 4.21 µM; in test [3], 12 µM.
Take `Clc1ccc2nc(Oc3ccccc3)cnc2c1`: the GI50 in test [1], in test [2] and in test [3] was over 100 µM in each case. Moreover, the TGI in test [1], in test [2] and in test [3] was over 100 µM throughout.
Take `Cn1cc(-c2ccc3c(c2)CCN3C(=O)Cc2cccc(C(F)(F)F)c2)c2c(N)ncnc21`: the GI50 in test [1] was 1.82 µM; in test [2], 2.76 µM; in test [3] it was 4.86 µM. Moreover, the results for the TGI in test [1], in test [2] and in test [3] were 12.4 µM, 19.1 µM and 28.7 µM, respectively.
Take `CC[CH2][Pb]([CH2]CC)([CH2]CC)[NH]S(=O)(=O)c1ccc(C)cc1`: the GI50 in test [4] was 0.0294 µM; in test [1] it was 0.0209 µM; in test [2], 0.0638 µM; in test [3], 0.0701 µM. Moreover, the TGI stood at 0.14 µM in test [4], 0.0499 µM in test [1], 0.354 µM in test [2] and 0.196 µM in test [3].
Regarding `COc1cc2cc(Oc3ccc(NC(=O)c4ccc(Cl)c(C(F)(F)F)c4)cc3)c(C)nc2cc1OC`, the results for the GI50 in test [1], in test [2] and in test [3] were 8.86 µM, 16.6 µM and 4.3 µM, respectively. In addition, the TGI in test [1] is 70.2 µM; in test [2] it was 64 µM; in test [3] it was over 100 µM.
Regarding `Cc1cn2c(/C=N/N/C(N)=N\N)c(-c3ccc(Cl)c([N+](=O)[O-])c3)nc2s1`, the GI50 in test [1] is 1.12 µM; in test [2], 1.1 µM; in test [3], 9.95 µM. Further, the TGI in test [1] stood at 2.36 µM; in test [2], 2.39 µM; in test [3] it was 24.8 µM.
Regarding `CCc1c[nH]c2ncnc(N3CC[C@@](N)(CNC(=O)c4ccc(F)cc4F)C3)c12`, the GI50 was 17 µM in test [1], 18.2 µM in test [2] and 35.4 µM in test [3]. Besides, the TGI in test [1] is 55.3 µM; in test [2], 75.2 µM; in test [3] it was over 100 µM.

The values above are taken from PubChem BioAssay (NCI).
